Measurements as given in patent US20110250136A1, “FLUORINATED BENZOTHIAZOLE DERIVATIVES, PREPARATION METHOD THEREOF AND IMAGING AGENT FOR DIAGNOSING ALTZHEIMER'S DISEASE USING THE SAME” (SNU R&DB FOUNDATION, priority 2008, published 2011).
“And” between values parts separate entries of the source, which are not always exact repeats. Equal entries are not always repeated. Blank lines part the entries; values can stand above or below the compound they belong to.

Legend:
[1] = target: T1, Aβ1-42 fibrils (Homo sapiens, UniProt P05067); experiment: Binding affinity to beta-amyloid fibrils, competition with [125I]TZDM; conditions: [125I]TZDM radioligand
T1 construct: beta-amyloid plaque peptides (Aβ1-40 and Aβ1-42)
Method: (§1) A fibril solution, in which 1 mg of each of beta-amyloid plaque peptides (Aβ1-40 and Aβ1-42) to be used for analysis was dissolved in 1.155 ml of ethylenediaminetetraacetic acid disodium salt (Na2EDTA) solution, was introduced into 20 mM PBS buffer (pH 7.4), a sonication was performed for 30 minutes, and then the mixture was incubated with stirring for 3 days at 30° C. The thus-obtained solution was high speed centrifuged (28,000 g for 15 minutes) at 4° C., and the supernatant was collected. The precipitate was washed twice with 100 μl of a mixture solution of 1 mM ethylenediaminetetraacetic acid disodium salt and 10 mM PBS buffer. The precipitate was resuspended in 2.310 ml of 1 mM ethylenediaminetetraacetic acid disodium salt and 10 mM PBS buffer, and the suspended sold produced was divided into equal aliquots of 30 μl and kept at −80° C. […] A mixed solution with a total volume of 1000 μl was incubated at room temperature for 3 hours, and then a Whatman GF/B filter was used to separate the solution into unbound radioactive materials and bound radioactive materials. Then, each tube was washed three times with 3 μl of 10% ethanol. The radioactivity was measured using an automatic gamma counter.

[2] = target: T2, Aβ1-40 fibrils (Homo sapiens, UniProt P05067); experiment: as above; conditions: [125I]TZDM radioligand
T2 construct: beta-amyloid plaque peptides (Aβ1-40 and Aβ1-42)
Method: as §1

[3] = Measurement of partition coefficient (1-octanol / PBS buffer, gamma counter); assay type: physicochemical; conditions: 1-octanol / 1 M PBS buffer, room temperature; read-out: Log P value
Method: For this purpose, the distribution ratio of octanol to water buffer of the compound to be measured may be measured to determine the relative lipophilicity of each compound. […] The mixture was vortexed at room temperature for 5 minutes and then was centrifuged at 1000 rpm for 5 minutes. 4 ml was withdrawn from the octanol layer of the solution, introduced into a new tube, and another 4 ml of 1 M PBS buffer was introduced into the tube. The mixture was vortexed at room temperature for 5 minutes and then centrifuged at 1000 rpm for 5 minutes. 50 μl was withdrawn from the octanol layer and introduced into a test tube, and 500 μl was withdrawn from the 1 M PBS buffer and introduced into the test tube. 3 ml was withdrawn from the octanol layer and introduced into another test tube, and another 3 ml of 1 M PBS buffer was added into the test tube. The mixture was vortexed at room temperature for 5 minutes and then centrifuged at 1000 rpm for 5 minutes. 50 μl was withdrawn from the octanol layer and introduced into a test tube, and 500 μl was withdrawn from the 1 M PBS buffer and introduced into the test tube. 2 ml was withdrawn from the octanol layer and introduced into another test tube, and another 2 ml of the PBS buffer. The mixture was vortexed at room temperature for 5 minutes and then centrifuged at 1000 rpm for 5 minutes. […]

[4] = Brain imaging (PET) of normal volunteer, brain region to cerebellar ratio; assay type: in vivo, human; conditions: 196 MBq i.v.; for brain region to cerebellar ratio, Cinerea / brain region to cerebellar ratio, Frontal cortex / brain region to cerebellar ratio, Occipital cortex / brain region to cerebellar ratio, posterior cingulate cortex: PET; for brain region to cerebellar ratio, Cerebell: PET (reference region)
Method: Each of the compounds (196 MBq) in Examples 2 and 3 of the present invention was dissolved in 6 ml of physiological saline solution including 5% ethanol, the resulting solution was intravenously injected into a normal volunteer (78 kg), and Static Images of the brain from the injection to 2 hours were obtained through a Phillips Allegro PET scanner. The protocol of the brain imaging repeated emission and transmission as follows.
[2 minute emission+transmission]×four times
[5 minute emission+transmission]×four times
[10 minute emission+transmission]×three times
For attenuation correction, a Cs-137 radiation source prior to the administration was used to obtain a one-and-a half minute transmission scan per bed (18 cm). The transmission image and a 3D Row-Action Maximum-Likelihood (RAMLA) algorithm were used to reconstruct an attenuation corrected image. The 3D voxel size was 2.0×2.0×2.0 mm and the matrix size was 128×128×90 (FIGS. 2 and 3).

[5] = In vivo cerebral uptake and release degree in a normal mouse; parameters: species or system ICR mice; conditions: for % ID-kg/g: corrected for body weight; for % ID/g: tail vein injection, normal mouse; for release from normal mouse brain (in words): up to 60 min
Method: 6 week-old ICR mice were used for experiments on cerebral uptake and release degree of three 6-[18F]fluorine-2-allylbenzothiazole derivatives (compounds in Examples 1 to 3) in a mouse over time. Each of the compounds in Examples 1 to 3 was dissolved in physiological saline solution containing 5% ethanol, and each of 200 μl (100 μCi) of the solutions was injected through the tail vein of the mouse. 2, 30, and 60 minutes were selected as in-vivo retention time periods, and 4 to 7 mice were used in each time period. After the mice were sacrificed by cervical dislocation in each time period, the brains were quickly removed, they were separated into three parts of cortex, cerebellum, and remnant on filter paper kept on ice, respectively, and blood was collected. The specimen thus-obtained was introduced into a glass tube, the weight was determined, and the radioactivity were measured using a gamma counter. Using the data obtained, the percent injected dose per gram of tissue (% ID/g) in each sample compared to radioactivity actually injected, and the value (% ID-kg/g) corrected for individual body weights of the mice used were calculated.

[6] = target: T2, Aβ1-40 fibrils; conditions: radioactive ligand, known value, first Aβ1-40; cited from earlier work
[7] = target: T1, Aβ1-42 fibrils; conditions: radioactive ligand, known value, printed as second Aβ1-40; read-out: Kd for Aβ1-40 (second named); cited from earlier work

T2 sequence (P05067 672-711 limits assumed): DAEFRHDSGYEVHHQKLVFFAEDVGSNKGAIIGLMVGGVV
T1 sequence (P05067 672-713 limits assumed): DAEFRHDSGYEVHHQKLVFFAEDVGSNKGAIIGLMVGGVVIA

SMILES: CNc1ccc(-c2nc3ccc([18F])cc3s2)cc1 [Example 2, 2-(4′-N-Methylaminophenyl)-6-[^18F]fluorobenzothiazole]
logP [3]: 3.11
brain region to cerebellar ratio, Cinerea ([4]; 15 min): 0.45
brain region to cerebellar ratio, Frontal cortex ([4]; 15 min): 0.92
brain region to cerebellar ratio, Occipital cortex ([4]; 15 min): 1.05
brain region to cerebellar ratio, posterior cingulate cortex ([4]; 15 min): 0.89
brain region to cerebellar ratio, Cerebell ([4]; 15 min): 1.00
brain region to cerebellar ratio, Cinerea ([4]; 90 min): 0.83
brain region to cerebellar ratio, Frontal cortex ([4]; 90 min): 0.96
brain region to cerebellar ratio, Occipital cortex ([4]; 90 min): 0.95
brain region to cerebellar ratio, posterior cingulate cortex ([4]; 90 min): 0.87
brain region to cerebellar ratio, Cerebell ([4]; 90 min): 1.00
% ID-kg/g ([5]; Blood, 2 min): 0.070 ± 0.007 % ID-kg/g
% ID/g ([5]; Blood, 2 min): 2.08 ± 0.19 % ID/g
% ID-kg/g ([5]; Blood, 30 min): 0.032 ± 0.007 % ID-kg/g
% ID/g ([5]; Blood, 30 min): 0.92 ± 0.15 % ID/g
% ID-kg/g ([5]; Blood, 60 min): 0.042 ± 0.006 % ID-kg/g
% ID/g ([5]; Blood, 60 min): 1.28 ± 0.08 % ID/g
% ID-kg/g ([5]; Cerebellum, 2 min): 0.210 ± 0.017 % ID-kg/g
% ID/g ([5]; Cerebellum, 2 min): 6.24 ± 0.35 % ID/g
% ID-kg/g ([5]; Cerebellum, 30 min): 0.048 ± 0.011 % ID-kg/g
% ID/g ([5]; Cerebellum, 30 min): 1.38 ± 0.23 % ID/g
% ID-kg/g ([5]; Cerebellum, 60 min): 0.032 ± 0.003 % ID-kg/g
% ID/g ([5]; Cerebellum, 60 min): 0.98 ± 0.12 % ID/g
% ID-kg/g ([5]; Cortex, 2 min): 0.222 ± 0.015 % ID-kg/g
% ID/g ([5]; Cortex, 2 min): 6.62±0.33 % ID/g
% ID-kg/g ([5]; Cortex, 30 min): 0.042 ± 0.010 % ID-kg/g
% ID/g ([5]; Cortex, 30 min): 1.20 ± 0.20 % ID/g
% ID-kg/g ([5]; Cortex, 60 min): 0.024 ± 0.002 % ID-kg/g
% ID/g ([5]; Cortex, 60 min): 0.73±0.09 % ID/g and 0.73 ± 0.10 % ID/g
% ID-kg/g ([5]; Remnant (brain), 2 min): 0.212 ± 0.017 % ID-kg/g
% ID/g ([5]; Remnant (brain), 2 min): 6.30 ± 0.46 % ID/g
% ID-kg/g ([5]; Remnant (brain), 30 min): 0.066 ± 0.014 % ID-kg/g
% ID/g ([5]; Remnant (brain), 30 min): 1.91 ± 0.30 % ID/g
% ID-kg/g ([5]; Remnant (brain), 60 min): 0.044 ± 0.003 % ID-kg/g
% ID/g ([5]; Remnant (brain), 60 min): 1.32 ± 0.15 % ID/g
release from normal mouse brain (in words) ([5]; normal mouse brain): very quickly released

SMILES: CNc1ccc(-c2nc3ccccc3s2)cc1I [2-(3-[125I]iodo-4′-N-methylaminophenyl)benzothiazole]
Kd [6]: 2.3 ± 0.33 nM
Kd [7]: 0.44 ± 0.25 nM

Now from value to compound, other results behind:

Ki [1]: 1.86 nM
Ki [2]: 7.9 nM
melting point: 204.4 to 205.9 °C
SMILES: CN(C)c1ccc(-c2nc3ccc(F)cc3s2)cc1 [Example 6, 2-(4′-Dimethylaminophenyl)-6-fluorobenzothiazole]

Ki [1]: 7.55 nM
Ki [2]: 13.3 nM
melting point: 153.5 to 154.5 °C
SMILES: CNc1ccc(-c2nc3ccc(F)cc3s2)cc1 [Example 5, 2-(4′-N-methylaminophenyl)-6-fluorobenzothiazole]

logP [3]: 4.33
brain region to cerebellar ratio, Cinerea ([4]; 15 min): 0.40
brain region to cerebellar ratio, Frontal cortex ([4]; 15 min): 0.88
brain region to cerebellar ratio, Occipital cortex ([4]; 15 min): 1.17
brain region to cerebellar ratio, posterior cingulate cortex ([4]; 15 min): 0.91
brain region to cerebellar ratio, Cerebell ([4]; 15 min): 1.00
brain region to cerebellar ratio, Cinerea ([4]; 90 min): 0.83
brain region to cerebellar ratio, Frontal cortex ([4]; 90 min): 1.02
brain region to cerebellar ratio, Occipital cortex ([4]; 90 min): 1.12
brain region to cerebellar ratio, posterior cingulate cortex ([4]; 90 min): 1.00
brain region to cerebellar ratio, Cerebell ([4]; 90 min): 1.00
% ID/g ([5]; Blood, 2 min): 1.55 ± 0.08 % ID/g
% ID/g ([5]; Blood, 30 min): 1.04 ± 0.19 % ID/g
% ID/g ([5]; Blood, 60 min): 1.02 ± 0.06 % ID/g
% ID/g ([5]; Cerebellum, 2 min): 4.45 ± 0.19 % ID/g
% ID/g ([5]; Cerebellum, 30 min): 2.03 ± 0.26 % ID/g
% ID/g ([5]; Cerebellum, 60 min): 1.16 ± 0.09 % ID/g
% ID/g ([5]; Cortex, 2 min): 4.39 ± 0.22 % ID/g
% ID/g ([5]; Cortex, 30 min): 2.17 ± 0.26 % ID/g
% ID/g ([5]; Cortex, 60 min): 1.61 ± 0.22 % ID/g
% ID/g ([5]; Remnant (brain), 2 min): 4.26 ± 0.22 % ID/g
% ID/g ([5]; Remnant (brain), 30 min): 2.80 ± 0.39 % ID/g
% ID/g ([5]; Remnant (brain), 60 min): 2.01 ± 0.15 % ID/g
initial cerebral uptake (in words) ([5]; normal mouse brain, 2 min): relatively lower initial cerebral uptake
release from normal mouse brain (in words) ([5]; normal mouse brain): slower 60-minute removal rate
SMILES: CN(C)c1ccc(-c2nc3ccc([18F])cc3s2)cc1 [Example 3, 2-(4′-N-Dimethylaminophenyl)-6-[^18F]fluorobenzothiazole]
% ID-kg/g ([5]; Blood, 2 min): 0.040 ± 0.003 % ID-kg/g
% ID-kg/g ([5]; Blood, 30 min): 0.026 ± 0.005 % ID-kg/g
% ID-kg/g ([5]; Blood, 60 min): 0.021 ± 0.010 % ID-kg/g
% ID-kg/g ([5]; Cerebellum, 2 min): 0.115 ± 0.005 % ID-kg/g
% ID-kg/g ([5]; Cerebellum, 30 min): 0.050 ± 0.007 % ID-kg/g
% ID-kg/g ([5]; Cerebellum, 60 min): 0.024 ± 0.012 % ID-kg/g
% ID-kg/g ([5]; Cortex, 2 min): 0.114 ± 0.004 % ID-kg/g
% ID-kg/g ([5]; Cortex, 30 min): 0.054 ± 0.006 % ID-kg/g
% ID-kg/g ([5]; Cortex, 60 min): 0.033 ± 0.017 % ID-kg/g
% ID-kg/g ([5]; Remnant (brain), 2 min): 0.110 ± 0.006 % ID-kg/g
% ID-kg/g ([5]; Remnant (brain), 30 min): 0.069 ± 0.010 % ID-kg/g
% ID-kg/g ([5]; Remnant (brain), 60 min): 0.041 ± 0.020 % ID-kg/g
